Measurements: BindingDB's records for patent US20250313563 (The Broad Institute, 2025)
“And” between values parts separate entries of the source, which are not always exact repeats. Identical values can stand only once.

Assays:
[1] = biological target: Glycogen synthase kinase-3 alpha (Homo sapiens, UniProt P49840); assay: TR-FRET Assay
How it was run: (§1)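 TR-FRET readout: streptavidin-d2 (40 nM in added detection mix) plus Tb-anti-pSer641 Ab (2 nM in mix). Steps were 30 min compound preincubation, kinase reaction, then EDTA stop.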

[2] = biological target: Glycogen synthase kinase-3 beta (Homo sapiens, UniProt P49841); assay: TR-FRET Assay
Chain of Glycogen synthase kinase-3 beta (P49841 whole entry): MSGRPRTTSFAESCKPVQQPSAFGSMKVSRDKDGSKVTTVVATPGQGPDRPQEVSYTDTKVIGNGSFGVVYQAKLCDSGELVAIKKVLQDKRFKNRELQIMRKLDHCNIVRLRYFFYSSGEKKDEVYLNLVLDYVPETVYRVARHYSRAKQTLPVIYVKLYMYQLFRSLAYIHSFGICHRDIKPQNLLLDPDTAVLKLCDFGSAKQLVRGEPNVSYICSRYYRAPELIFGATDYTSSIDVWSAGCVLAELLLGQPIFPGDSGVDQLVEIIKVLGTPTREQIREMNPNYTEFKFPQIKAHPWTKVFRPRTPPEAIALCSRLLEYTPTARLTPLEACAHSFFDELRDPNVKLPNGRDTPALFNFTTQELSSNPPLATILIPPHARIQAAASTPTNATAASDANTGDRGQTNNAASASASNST
How it was run: as §1

Chain of Glycogen synthase kinase-3 alpha (P49840 whole entry): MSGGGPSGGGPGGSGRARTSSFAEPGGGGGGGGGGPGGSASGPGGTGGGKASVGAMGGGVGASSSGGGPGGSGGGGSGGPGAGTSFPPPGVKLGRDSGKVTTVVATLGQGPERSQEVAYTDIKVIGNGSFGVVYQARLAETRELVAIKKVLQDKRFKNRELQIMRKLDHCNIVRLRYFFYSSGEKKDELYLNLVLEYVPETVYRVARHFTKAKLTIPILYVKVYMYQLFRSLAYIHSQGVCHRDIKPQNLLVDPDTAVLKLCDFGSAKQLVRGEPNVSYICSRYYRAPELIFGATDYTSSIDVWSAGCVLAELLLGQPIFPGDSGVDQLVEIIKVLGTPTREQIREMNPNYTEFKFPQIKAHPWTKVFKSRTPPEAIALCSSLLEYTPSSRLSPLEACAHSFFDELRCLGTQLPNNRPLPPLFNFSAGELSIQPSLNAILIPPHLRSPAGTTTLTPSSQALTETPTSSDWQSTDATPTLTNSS

IC50 [1]	IC50 [2]	Compound
< 100 nM	100 to 1000 nM	CCC1(c2cccc(-c3ccnc(C)c3)c2)C2=CN=NC2NC2=C1C(=O)CC(C)(C)C2 (stereo unspecified) [US20250313563, Compound 840857]
100 to 1000 nM	1000 to 5000 nM	CC[C@]1(c2cccc(-c3ccnc(OC)c3F)c2)C2=CN=NC2NC2=C1C(=O)NC(C)(C)C2 (stereo partly specified) [US20250313563, Compound 948520]
< 100 nM	< 100 nM	CC1(C)CC(=O)C2=C(C1)NC1=C(CN=N1)[C@@]21CCN(S(=O)(=O)c2cccc(F)c2)C1 [US20250313563, Compound 951862]
< 100 nM	100 to 1000 nM	COc1ccc(S(=O)(=O)N2CCC[C@]3(CC2)C2=CN=NC2NC2=C3C(=O)CC(C)(C)C2)cc1 (stereo partly specified) [US20250313563, Compound 932641]
100 to 1000 nM	1000 to 5000 nM	CCC1(c2cccc(-c3cc(C)nc(OC(F)F)c3)c2)C2=CN=NC2NC2=C1C(=O)CC(C)(C)C2 (stereo unspecified) [US20250313563, Compound 945463]
< 100 nM and 100 to 1000 nM	< 100 nM and 1000 to 5000 nM	CC[C@]1(c2cccc([C@@H](C)c3ncccn3)c2)C2=CN=NC2NC2=C1C(=O)CC(C)(C)C2 (stereo partly specified) [US20250313563, Compound 948058]
1000 to 5000 nM	> 5000 nM	CC(C)[C@@H]1C[C@]2(CCO1)C1=C(N=NC1)NC1=C2C(=O)CC(C)(C)C1 [US20250313563, Compound 884013]
< 100 nM	< 100 nM	CCC1(c2cccc(S(=O)(=O)Cc3ccccc3)c2)C2=CN=NC2NC2=C1C(=O)CC(C)(C)C2 (stereo unspecified) [US20250313563, Compound 913258]
100 to 1000 nM	1000 to 5000 nM	CC[C@]1(c2cccc(-c3cncn3C)c2)C2=CN=NC2NC2=C1C(=O)CC(C)(C)C2 (stereo partly specified) [US20250313563, Compound 945620]
1000 to 5000 nM	> 5000 nM	CC[C@@]1(c2cccc(-c3cc(-c4ccccc4)nn3C(C)C)c2)C2=CN=NC2NC2=C1C(=O)NC(C)(C)C2 (stereo partly specified) [US20250313563, Compound 952411]
100 to 1000 nM	1000 to 5000 nM	CC[C@@]1(c2cccc(-c3cnn(CCN4CCCC4)c3)c2)C2=CN=NC2NC2=C1C(=O)NC(C)(C)C2 (stereo partly specified) [US20250313563, Compound 952022]
< 100 nM	100 to 1000 nM	CCC1(c2cccc(SC)c2)C2=CN=NC2NC2=C1C(=O)CC(C)(C)C2 (stereo unspecified) [US20250313563, Compound 810508]
100 to 1000 nM	1000 to 5000 nM	CCC1(c2cccc(C(C)(C)F)c2)C2=CN=NC2NC2=C1C(=O)N(C)CC2 (stereo unspecified) [US20250313563, Compound 913178]
< 100 nM and 100 to 1000 nM	100 to 1000 nM and > 5000 nM	CCC1(c2cccc(-c3cnc(C)n3C)c2)C2=CN=NC2NC2=C1C(=O)CC(C)(C)C2 (stereo unspecified) [US20250313563, Compound 943531]
100 to 1000 nM	100 to 1000 nM	CC1(C)CC(=O)C2=C(C1)NC1=C(CN=N1)C21CCOCC1 [US20250313563, Compound 826648]
< 100 nM	100 to 1000 nM	CC[C@]1(c2cccc(C(F)(F)F)c2)C2=C(N=NC2)NC2=C1C(=O)CC2 [US20250313563, Compound 951565]
1000 to 5000 nM	> 5000 nM	CC[C@]1(c2cccc(-c3ccncc3C)c2)C2=C(CC(C)(C)NC2=O)NC2N=NC(C)=C21 (stereo partly specified) [US20250313563, Compound 947409]
< 100 nM	< 100 nM	CC1(C)CC(=O)C2=C(C1)NC1N=NC(C(F)(F)F)=C1C21CCCc2ccccc21 (stereo unspecified) [US20250313563, Compound 790745]
1000 to 5000 nM	> 5000 nM	CC[C@]1(c2cccc(N(C)c3ccccn3)c2)C2=CN=NC2NC2=C1C(=O)CC(C)(C)C2 (stereo partly specified) [US20250313563, Compound 875608]
< 100 nM	100 to 1000 nM	C[C@H]1CC[C@]2(C1)C1=C(N=NC1)NC1=C2C(=O)CC(C)(C)C1 [US20250313563, Compound 897751]
1000 to 5000 nM	> 5000 nM	CCC1(c2cccc(N(C)c3cc(C)nc(C)c3)c2)C2=CN=NC2NC2=C1C(=O)CC(C)(C)C2 (stereo unspecified) [US20250313563, Compound 913256]
100 to 1000 nM	100 to 1000 nM	CC[C@]1(c2cccc(N3CCOCC3)c2)C2=C(CC(C)(C)NC2=O)NC2N=NC(C(F)(F)F)=C21 (stereo partly specified) [US20250313563, Compound 949000]
100 to 1000 nM	1000 to 5000 nM	CC1(C)CC(=O)C2=C(C1)NC1=C(CN=N1)[C@]21CC[C@@H](c2ccncc2)CC1 [US20250313563, Compound 949320]
< 100 nM and 100 to 1000 nM	< 100 nM and 1000 to 5000 nM	Cn1ccc(S(=O)(=O)N2CC[C@@]3(C2)C2=C(N=NC2)NC2=C3C(=O)CC(C)(C)C2)n1 [US20250313563, Compound 943484]
< 100 nM	< 100 nM	COc1ccc(S(=O)(=O)N2CCC3(CC2)C2=C(N=NC2)NC2=C3C(=O)CC(C)(C)C2)cc1Cl [US20250313563, Compound 947612]
< 100 nM and 100 to 1000 nM	100 to 1000 nM and > 5000 nM	CC[C@]1(c2cccc(-c3ccnc(C)c3)c2)C2=CN=NC2NC2=C1C(=O)CC(C)(C)C2 (stereo partly specified) [US20250313563, Compound 865169]
1000 to 5000 nM	> 5000 nM	CC[C@H]1CCN1c1cccc([C@]2(CC)C3=CN=NC3NC3=C2C(=O)CC(C)(C)C3)c1 (stereo partly specified) [US20250313563, Compound 911972]

IC50 [1]	IC50 [2]	Compound
< 100 nM	100 to 1000 nM	CCC1(c2cccc(Oc3cncnc3)c2)C2=CN=NC2NC2=C1C(=O)CC(C)(C)C2 (stereo unspecified) [US20250313563, Compound 917212]
< 100 nM	100 to 1000 nM	CC1(C)CC(=O)C2=C(C1)NC1N=NC=C1C21CCCS(=O)(=O)CC1 (stereo unspecified) [US20250313563, Compound 927343]
> 5000 nM	> 5000 nM	CC[C@]1(c2cccc(-c3cnn(C)c3)c2)C2=C(CC(C)(C)NC2=O)NC2N=NC(C)=C21 (stereo partly specified) [US20250313563, Compound 945611]
< 100 nM	100 to 1000 nM	CC[C@]1(c2cccc(N3CCCC[C@H]3C)c2)C2=CN=NC2NC2=C1C(=O)CC(C)(C)C2 (stereo partly specified) [US20250313563, Compound 917209]
< 100 nM	100 to 1000 nM	CCC1(c2cccc(N(C)C(=O)C3CCOCC3)c2)C2=CN=NC2NC2=C1C(=O)CC(C)(C)C2 (stereo unspecified) [US20250313563, Compound 912070]
< 100 nM	< 100 nM	CC[C@]1(c2cccc(OC(C)C)c2)C2=CN=NC2NC2=C1C(=O)CC(C)(C)C2 (stereo partly specified) [US20250313563, Compound 811564]
100 to 1000 nM	1000 to 5000 nM	CC[C@@]1(c2cccc(-c3cnn(CC4CCOC4)c3)c2)C2=CN=NC2NC2=C1C(=O)NC(C)(C)C2 (stereo partly specified) [US20250313563, Compound 951836]
100 to 1000 nM	1000 to 5000 nM	CC[C@]1(c2cccc(-c3ccncc3C3CC3)c2)C2=CN=NC2NC2=C1C(=O)NC(C)(C)C2 (stereo partly specified) [US20250313563, Compound 948642]
< 100 nM and 1000 to 5000 nM	1000 to 5000 nM and > 5000 nM	CC[C@]1(c2cccc(-c3cnn(C)c3)c2)C2=CN=NC2NC2=C1C(=O)CC(C)(C)[C@H]2F (stereo partly specified) [US20250313563, Compound 957505]
1000 to 5000 nM	> 5000 nM	CC[C@]1(c2cccc(-c3c(F)cncc3Cl)c2)C2=CN=NC2NC2=C1C(=O)NC(C)(C)C2 (stereo partly specified) [US20250313563, Compound 948363]
< 100 nM	< 100 nM	CCC1(c2cccc(N(C)C(C)=O)c2)C2=CN=NC2NC2=C1C(=O)CC(C)(C)C2 (stereo unspecified) [US20250313563, Compound 801319]
> 5000 nM	> 5000 nM	CC[C@]1(c2ccccc2)C2=C(N=NC2)NC2=C1C(=O)[C@H]1CC[C@@H]2C1 [US20250313563, Compound 791268]
< 100 nM	100 to 1000 nM	CC[C@@]1(c2cccc(-c3cnn(CCOC)c3)c2)C2=CN=NC2NC2=C1C(=O)NC(C)(C)C2 (stereo partly specified) [US20250313563, Compound 949105]
100 to 1000 nM	1000 to 5000 nM	CC1CCCC12C1=C(N=NC1)NC1=C2C(=O)CC(C)(C)C1 (stereo unspecified) [US20250313563, Compound 826765]
< 100 nM	100 to 1000 nM	CCC1(c2cccc(-c3cnco3)c2)C2=CN=NC2NC2=C1C(=O)CC(C)(C)C2 (stereo unspecified) [US20250313563, Compound 944025]
< 100 nM	< 100 nM	CC[C@@]1(c2cccc(-c3ccnn3C)c2)C2=CN=NC2NC2=C1C(=O)N[C@@]1(CCOC1)C2 (stereo partly specified) [US20250313563, Compound 948015]
< 100 nM	< 100 nM	CC1(C)CC(=O)C2=C(C1)NC1=C(CN=N1)C21COC2(CN(C(=O)C3CCC(F)C3)C2)C1 (stereo unspecified) [US20250313563, Compound 947486]
< 100 nM and 100 to 1000 nM	< 100 nM and 1000 to 5000 nM	CC1(C)CC(=O)C2=C(C1)NC1=C(CN=N1)C21CCN(S(=O)(=O)C2=CN=C3CC=CC=C3C2)CC1 [US20250313563, Compound 947462]
> 5000 nM	> 5000 nM	CC[C@@]1(c2cccc(Br)c2)C2=CN=NC2NC2=C1C(=O)C[C@H](C(F)(F)F)C2 (stereo partly specified) [US20250313563, Compound 826654]
< 100 nM	< 100 nM	CCC1(c2cccc(S(=O)(=O)C(C)C)c2)C2=C(CC(C)(C)NC2=O)NC2N=NC(C(F)(F)F)=C21 (stereo unspecified) [US20250313563, Compound 947800]
100 to 1000 nM	1000 to 5000 nM	CC[C@@]1(c2cccc(OC(C)C)c2)C2=C(CC(C)(C)CC2=O)NC2N=NC(C(F)(F)F)=C21 (stereo partly specified) [US20250313563, Compound 947872]
100 to 1000 nM	1000 to 5000 nM	CC[C@]1(c2cccc(Br)c2)C2=CN=NC2NC2=C1C(=O)CC(C)(C)C2 (stereo partly specified) [US20250313563, Compound 790733]
> 1700 nM	> 5000 nM	C[C@@]1(c2ccccc2)C2=C(N=NC2)NC2=C1C(=O)CC1(CCCC1)C2 [US20250313563, Compound 792339]
100 to 1000 nM	1000 to 5000 nM	CC[C@]1(c2cccc(-c3cn(C)nc3C(C)C)c2)C2=C(CC(C)(C)CC2=O)NC2N=NC(C)=C21 (stereo partly specified) [US20250313563, Compound 913040]
< 100 nM	< 100 nM	CC[C@]1(c2cccc(C(F)(F)F)c2)C2=CN=NC2NC2=C1C(=O)N(C)C[C@@H]2C (stereo partly specified) [US20250313563, Compound 883979]
< 100 nM	< 100 nM	CC[C@@]1(c2cccc(-c3cn(C)nc3C(C)C)c2)C2=C(CC(C)(C)CC2=O)NC2N=NC(C)=C21 (stereo partly specified) [US20250313563, Compound 913029]
